From patent publication US20250163066A1, “PROTACs of MALT1” (TEGID THERAPEUTICS, INC., priority 2022, published 2025)

Biological target: MALT1 (Homo sapiens (Human), UniProt Q9UDY8)
Experiment: MALT1 enzymatic activity inhibition (fluorescence, Ac-LRSR-AMC substrate)
Type: biochemical
Settings: recombinant MALT1 1.5 ng/μl, Ac-LRSR-AMC 1 μM
Method: Compound activity was determined using recombinant MALT1 protein (Creative Biomart, Cat #MALT1-28H) and Ac-LRSR-AMC Substrate in an in vitro enzymatic reaction. The enzymatic assay used to determine activity was a Fluorescence assay using a Microplate Reader ClarioStar Plus. The enzymatic reaction was carried out in 1× Assay Buffer (50 mM HEPES pH 7.2-7.4, 100 mM NaCl, 900 mM Sodium citrate, 10 mM DTT). The compounds were dispensed on a 384-well Diamond Well Plate (Axygen, Cat #P-384-120SQ-C—S) using the Biomek FX liquid handling system at 100× solutions of compounds in DMSO. 2.5×MALT1 mix (final concentration 1.5 ng/μl of MALT1) was prepared in 1× Assay Buffer and 8 μl of mixture per well were added into 384w white Reaction Plates with NBS (Corning, Cat #4513). 8 μl of 1× Assay Buffer were used for negative control. Plates were centrifuged for 1 min at 200 g. Next, the compounds were added to Reaction plates using Biomek station via following steps: 1 μl of 100× compounds (in DMSO) was mixed thoroughly with 19 μl of 1× Assay Buffer, then 4 μl of this mixture were added to Reaction plates with 8 μl of MALT1 mix. Plates were centrifuged for 1 min at 200 g and incubated for 10 minutes at rt. Next, 2.5× Ac-LRSR-AMC mix (final concentration 1 μM of Ac-LRSR-AMC) was prepared in 1× Assay Buffer and 8 μl of mixture per well were added to Reaction Plates using Biomek station. Plates were centrifuged for 1 min at 200 g, then the fluorescence was measured immediately using Microplate Reader. Plates were incubated for 30 minutes at 37° C., then for 30 minutes at rt. The fluorescence was measured after the whole incubation using Microplate Reader. The reaction signal was calculated as the subtraction of the first data set values from the second. The % inhibition was then used to calculate the IC50 values. The results of this assay are shown in the Table A. The values of EC50 shown as a letters A-E, where: A≤0.2 μM; 0.2 μM<B≤0.5 μM; 0.5 μM<C≤1 μM; 1<D≤5 μM; E >5.

MALT1, sequence (Q9UDY8 whole entry): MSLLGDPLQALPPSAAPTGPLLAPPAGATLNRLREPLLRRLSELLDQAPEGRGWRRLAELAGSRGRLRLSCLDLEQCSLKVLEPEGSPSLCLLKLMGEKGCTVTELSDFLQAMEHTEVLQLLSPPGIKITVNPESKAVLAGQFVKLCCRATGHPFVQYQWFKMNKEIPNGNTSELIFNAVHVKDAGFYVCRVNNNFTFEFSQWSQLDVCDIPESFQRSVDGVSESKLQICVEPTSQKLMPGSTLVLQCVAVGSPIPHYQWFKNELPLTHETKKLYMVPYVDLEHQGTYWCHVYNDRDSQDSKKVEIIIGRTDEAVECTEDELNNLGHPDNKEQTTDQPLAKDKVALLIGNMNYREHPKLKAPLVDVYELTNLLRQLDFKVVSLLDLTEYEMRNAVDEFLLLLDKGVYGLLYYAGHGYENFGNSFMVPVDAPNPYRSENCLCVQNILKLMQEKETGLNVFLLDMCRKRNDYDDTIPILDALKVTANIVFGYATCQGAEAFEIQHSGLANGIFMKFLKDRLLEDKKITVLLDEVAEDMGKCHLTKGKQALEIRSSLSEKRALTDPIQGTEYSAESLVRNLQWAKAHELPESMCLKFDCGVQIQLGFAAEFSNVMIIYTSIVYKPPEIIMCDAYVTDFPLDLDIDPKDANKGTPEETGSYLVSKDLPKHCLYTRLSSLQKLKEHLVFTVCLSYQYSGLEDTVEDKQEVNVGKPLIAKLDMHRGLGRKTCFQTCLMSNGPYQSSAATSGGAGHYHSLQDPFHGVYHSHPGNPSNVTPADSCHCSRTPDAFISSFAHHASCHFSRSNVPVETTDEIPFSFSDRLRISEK

Row | SMILES | EC50
1 | Cc1cc(NC(=O)Nc2cnc3ccnn3c2C2CCCO2)cnc1-c1noc(CCC(=O)N2CCN(c3ccc4c(c3)CN(C3CCC(=O)NC3=O)C4=O)CC2)n1 (stereo not drawn) [Compound 60, 1-[6-[5-[3-[4-[2-(2,6-dioxo-3-piperidyl)-1-oxo-isoindolin-5-yl]piperazin-1-yl]-3-oxo-propyl]-1,2,4-oxadiazol-3-yl]-5-methyl-3-pyridyl]-3-(7-tetrahydrofuran-2-ylpyrazolo[1,5-a]pyrimidin-6-yl)urea] | ≤ 0.2 µM
2 | O=C1CCC(N2Cc3cc(N4CCN(C(=O)CCCCc5nc(-c6ncc(NC(=O)Nc7cnc8ccnn8c7C7CCCC7)cc6F)no5)CC4)ccc3C2=O)C(=O)N1 (stereo not drawn) [Compound 81, 1-(7-cyclopentylpyrazolo[1,5-a]pyrimidin-6-yl)-3-[6-[5-[5-[4-[2-(2,6-dioxo-3-piperidyl)-1-oxo-isoindolin-5-yl]piperazin-1-yl]-5-oxo-pentyl]-1,2,4-oxadiazol-3-yl]-5-fluoro-3-pyridyl]urea] | 0.2 to 0.5 µM
3 | CC(C)c1c(NC(=O)Nc2cnc(-c3noc(CCCC(=O)N4CCN(c5ccc6c(c5)CN(C5CCC(=O)N(C)C5=O)C6=O)CC4)n3)c(Cl)c2)cnc2ccnn12 (stereo not drawn) [Compound 135, 1-[5-chloro-6-[5-[4-[4-[2-(1-methyl-2,6-dioxo-3-piperidyl)-1-oxo-isoindolin-5-yl]piperazin-1-yl]-4-oxo-butyl]-1,2,4-oxadiazol-3-yl]-3-pyridyl]-3-(7-isopropylpyrazolo[1,5-a]pyrimidin-6-yl)urea] | ≤ 0.2 µM
4 | O=C1CCC(N2Cc3cc(N4CCN(C(=O)CCCCc5nc(-c6ncc(NC(=O)Nc7cnc8ccnn8c7C7CCCCC7)cc6Cl)no5)CC4)ccc3C2=O)C(=O)N1 (stereo not drawn) [Compound 98, 1-[5-chloro-6-[5-[5-[4-[2-(2,6-dioxo-3-piperidyl)-1-oxo-isoindolin-5-yl]piperazin-1-yl]-5-oxo-pentyl]-1,2,4-oxadiazol-3-yl]-3-pyridyl]-3-(7-cyclohexylpyrazolo[1,5-a]pyrimidin-6-yl)urea] | ≤ 0.2 µM
5 | Cc1cc(NC(=O)Nc2cnc3ccnn3c2C2CCCCC2)cnc1-c1noc(CCCC(=O)N2CCN(c3ccc4c(c3)CN(C3CCC(=O)NC3=O)C4=O)CC2)n1 (stereo not drawn) [Compound 126, 1-(7-cyclohexylpyrazolo[1,5-a]pyrimidin-6-yl)-3-[6-[5-[4-[4-[2-(2,6-dioxo-3-piperidyl)-1-oxo-isoindolin-5-yl]piperazin-1-yl]-4-oxo-butyl]-1,2,4-oxadiazol-3-yl]-5-methyl-3-pyridyl]urea] | 0.5 to 1 µM
6 | Cc1cc(NC(=O)Nc2cnc3ccnn3c2C(C)C)cnc1-c1nnc(CCCCCC(=O)N2CCN(c3ccc4c(c3)CN(C3CCC(=O)NC3=O)C4=O)CC2)s1 (stereo not drawn) [Compound 153, 1-[6-[5-[6-[4-[2-(2,6-dioxo-3-piperidyl)-1-oxo-isoindolin-5-yl]piperazin-1-yl]-6-oxo-hexyl]-1,3,4-thiadiazol-2-yl]-5-methyl-3-pyridyl]-3-(7-isopropylpyrazolo[1,5-a]pyrimidin-6-yl)urea] | 0.2 to 0.5 µM
7 | O=C1CCC(N2Cc3cc(N4CCN(CCCCCCc5nc(-c6ncc(NC(=O)Nc7cnc8ccnn8c7C7CCCC7)cc6F)no5)CC4)ccc3C2=O)C(=O)N1 (stereo not drawn) [Compound 95, 1-(7-cyclopentylpyrazolo[1,5-a]pyrimidin-6-yl)-3-[6-[5-[6-[4-[2-(2,6-dioxo-3-piperidyl)-1-oxo-isoindolin-5-yl]piperazin-1-yl]hexyl]-1,2,4-oxadiazol-3-yl]-5-fluoro-3-pyridyl]urea] | ≤ 0.2 µM
8 | Cc1cc(NC(=O)Nc2cnc3ccnn3c2C2CCCO2)cnc1N1CCN(C(=O)CCOCCN2CCN(c3ccc4c(c3)CN(C3CCC(=O)NC3=O)C4=O)CC2)CC1 (stereo not drawn) [Compound 35, 1-[6-[4-[3-[2-[4-[2-(2,6-dioxo-3-piperidyl)-1-oxo-isoindolin-5-yl]piperazin-1-yl]ethoxy]propanoyl]piperazin-1-yl]-5-methyl-3-pyridyl]-3-(7-tetrahydrofuran-2-ylpyrazolo[1,5-a]pyrimidin-6-yl)urea] | > 5 µM
9 | Cc1cc(-c2noc(CCCCC(=O)N3CCN(c4ccc5c(c4)CN(C4CCC(=O)NC4=O)C5=O)CC3)n2)ncc1NC(=O)Nc1cnc2ccnn2c1C1CCCC1 (stereo not drawn) [Compound 94, 1-(7-cyclopentylpyrazolo[1,5-a]pyrimidin-6-yl)-3-[6-[5-[5-[4-[2-(2,6-dioxo-3-piperidyl)-1-oxo-isoindolin-5-yl]piperazin-1-yl]-5-oxo-pentyl]-1,2,4-oxadiazol-3-yl]-4-methyl-3-pyridyl]urea] | > 5 µM
10 | COc1cc(-c2c(NC(=O)Nc3cnc(N4CCN(C(=O)COCC(=O)Nc5cccc6c5C(=O)N(C5CCC(=O)NC5=O)C6=O)CC4)c(C)c3)cnc3ccnn23)cc(OC)c1OC (stereo not drawn) [Compound 26, N-[2-(2,6-dioxo-3-piperidyl)-1,3-dioxo-isoindolin-4-yl]-2-[2-[4-[3-methyl-5-[[7-(3,4,5-trimethoxyphenyl)pyrazolo[1,5-a]pyrimidin-6-yl]carbamoylamino]-2-pyridyl]piperazin-1-yl]-2-oxo-ethoxy]acetamide] | > 5 µM
11 | O=C1CCC(N2Cc3cc(N4CCN(C(=O)CCCCCc5nc(-c6ncc(NC(=O)Nc7cnc8ccnn8c7C7CCCC7)cc6F)no5)CC4)ccc3C2=O)C(=O)N1 (stereo not drawn) [Compound 74, 1-(7-cyclopentylpyrazolo[1,5-a]pyrimidin-6-yl)-3-[6-[5-[6-[4-[2-(2,6-dioxo-3-piperidyl)-1-oxo-isoindolin-5-yl]piperazin-1-yl]-6-oxo-hexyl]-1,2,4-oxadiazol-3-yl]-5-fluoro-3-pyridyl]urea] | 0.2 to 0.5 µM
12 | O=C1CCC(N2Cc3cc(N4CCN(CCCCCCc5nc(-c6ncc(NC(=O)Nc7cnc8ccnn8c7C7CCCC7)cc6C(F)(F)F)no5)CC4)ccc3C2=O)C(=O)N1 (stereo not drawn) [Compound 133, 1-(7-cyclopentylpyrazolo[1,5-a]pyrimidin-6-yl)-3-[6-[5-[6-[4-[2-(2,6-dioxo-3-piperidyl)-1-oxo-isoindolin-5-yl]piperazin-1-yl]hexyl]-1,2,4-oxadiazol-3-yl]-5-(trifluoromethyl)-3-pyridyl]urea] | ≤ 0.2 µM
13 | Cc1cc(NC(=O)Nc2cnc3ccnn3c2C2CCCC2)cnc1-c1cn(CCCCOCC(=O)N2CCN(c3ccc4c(c3)CN(C3CCC(=O)NC3=O)C4=O)CC2)nn1 (stereo not drawn) [Compound 8, 1-(7-cyclopentylpyrazolo[1,5-a]pyrimidin-6-yl)-3-[6-[1-[4-[2-[4-[2-(2,6-dioxo-3-piperidyl)-1-oxo-isoindolin-5-yl]piperazin-1-yl]-2-oxo-ethoxy]butyl]triazol-4-yl]-5-methyl-3-pyridyl]urea] | 1 to 5 µM
14 | CC(C)(C)C(=O)OCN1C(=O)CCC(N2Cc3cc(N4CCN(C(=O)CCCCCc5nc(-c6ncc(NC(=O)Nc7cnc8ccnn8c7C7CCCC7)cc6Cl)no5)CC4)ccc3C2=O)C1=O (stereo not drawn) [Compound 70, [3-[5-[4-[6-[3-[3-chloro-5-[(7-cyclopentylpyrazolo[1,5-a]pyrimidin-6-yl)carbamoylamino]-2-pyridyl]-1,2,4-oxadiazol-5-yl]hexanoyl]piperazin-1-yl]-1-oxo-isoindolin-2-yl]-2,6-dioxo-1-piperidyl]methyl 2,2-dimethylpropanoate] | ≤ 0.2 µM
15 | Cc1cc(NC(=O)Nc2cnc3ccnn3c2C(C)C)cnc1-c1noc(CCCCCC(=O)N2CCN(c3ccc4c(c3)CN(C3CCC(=O)N(COC(=O)C(C)(C)C)C3=O)C4=O)CC2)n1 (stereo not drawn) [Compound 131, [3-[5-[4-[6-[3-[5-[(7-isopropylpyrazolo[1,5-a]pyrimidin-6-yl)carbamoylamino]-3-methyl-2-pyridyl]-1,2,4-oxadiazol-5-yl]hexanoyl]piperazin-1-yl]-1-oxo-isoindolin-2-yl]-2,6-dioxo-1-piperidyl]methyl 2,2-dimethylpropanoate] | ≤ 0.2 µM
